# Experimental data from patent publication US20250326744A1, “PIPERAZINE DERIVATIVE OR SALT THEREOF, AND PHARMACEUTICAL COMPOSITION” (priority 2022, published 2025).
# Counter-ions that a name gives are not always drawn.
# How the values were obtained:
# [1] = system: mexB (PA) strain; assay: Combinational effect with antibacterial agent against Pseudomonas aeruginosa (Test Examples 2 and 4): mexB (PA) strain with LVFX, TC or AZT at 1/4 MIC, EC99; type: cell-based; conditions: mexB (PA) strain, Test Example 4; for EC99, combinational effect with AZT, mexB (PA): combined with AZT at 1/4 MIC; for EC99, combinational effect with LVFX, mexB (PA): combined with LVFX at 1/4 MIC; for EC99, combinational effect with TC, mexB (PA): combined with TC at 1/4 MIC
# How it was run: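 EC99 denotes the minimum test-compound concentration (range 0–800 μM) that suppresses ≥99% of growth, measured by OD595, when combined with ¼ MIC levofloxacin (LVFX), tetracycline or aztreonam. The efflux-pump mutant mexB (PA), expressing mainly MexAB-OprM, was inoculated at 10^4–5 CFU/well in CAMHB for 16–20 h.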
# [2] = system: S-3769 strain; assay: Combinational effect with antibacterial agent against Pseudomonas aeruginosa (Test Examples 2 and 4): S-3769 strain with AMK or GM at 1/4 MIC, EC99; type: cell-based; conditions: S-3769 strain, Test Example 4; for EC99, combinational effect with AMK, S-3769 strain: combined with AMK at 1/4 MIC; for EC99, combinational effect with GM, S-3769 strain: combined with GM at 1/4 MIC
# How it was run: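 EC99, the lowest test-compound concentration inhibiting growth by ≥99% (OD595), was measured with aminoglycoside AMK or GM held at ¼ MIC. Strain S-3769, a MexY-overexpressing clinical isolate, was cultured in CAMHB at 10^4 to 5 CFU/well for 16–20 h; compound range 0–800 μM.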
Structure (SMILES),"EC99, combinational effect with AZT, mexB (PA) [1]","EC99, combinational effect with LVFX, mexB (PA) [1]","EC99, combinational effect with TC, mexB (PA) [1]","EC99, combinational effect with AMK, S-3769 strain [2]","EC99, combinational effect with GM, S-3769 strain [2]"
"Cc1ccsc1CN1CCN(C(=O)[C@H](N)C2CCN(CCc3cc(Cl)ccc3-c3ccccc3)CC2)CC1 [Example 516, Hydrobromide of (R)-2-amino-2-(1-(2-(4-chloro-[1,1-biphenyl]-2-yl)ethyl)piperidin-4-yl)-1-(4-((3-methylthiophen-2-yl)methyl)piperazin-1-yl)ethan-1-one]",B (25 μM<EC99≤100 μM),B (25 μM<EC99≤100 μM),B (25 μM<EC99≤100 μM),B (25 μM<EC99≤100 μM),B (25 μM<EC99≤100 μM)
"N[C@@H](C(=O)N1CCN(Cc2c(F)cccc2N2CCCC2)CC1)C1CCN(CCc2cc(Cl)ccc2-c2ccccc2)CC1 [Example 517, Hydrobromide of (R)-2-amino-2-(1-(2-(4-chloro-[1,1-biphenyl]-2-yl)ethyl)piperidin-4-yl)-1-(4-(2-fluoro-6-(pyrrolidin-1-yl)benzyl)piperazin-1-yl)ethan-1-one]",B (25 μM<EC99≤100 μM),C (100 μM<EC99),B (25 μM<EC99≤100 μM),B (25 μM<EC99≤100 μM),B (25 μM<EC99≤100 μM)
"Nc1nc2c(CN3CCN(C(=O)[C@H](N)C4CCN(CCc5cc(Cl)ccc5-c5ccccc5)CC4)CC3)cccc2s1 [Example 519, Hydrobromide of (R)-2-amino-1-(4-((2-aminobenzo[d]thiazol-4-yl)methyl)piperazin-1-yl)-2-(1-(2-(4-chloro-[1,1-biphenyl]-2-yl)ethyl)piperidin-4-yl)ethan-1-one]",C (100 μM<EC99),C (100 μM<EC99),B (25 μM<EC99≤100 μM),B (25 μM<EC99≤100 μM),B (25 μM<EC99≤100 μM)
"N[C@@H](C(=O)N1CCN(Cc2ccccc2B(O)O)CC1)C1CCN(CCc2cc(Cl)ccc2-c2ccccc2)CC1 [Example 521, Hydrobromide of (R)-(2-((4-(2-amino-2-(1-(2-(4-chloro-[1,1-biphenyl]-2-yl)ethyl)piperidin-4-yl)acetyl)piperazin-1-yl)methyl)phenyl)boronic acid]",C (100 μM<EC99),C (100 μM<EC99),C (100 μM<EC99),B (25 μM<EC99≤100 μM),B (25 μM<EC99≤100 μM)
"COc1cccc(SC)c1CN1CCN(C(=O)[C@H](N)C2CCN(CCc3cc(Cl)ccc3-c3ccccc3)CC2)CC1 [Example 522, Hydrobromide of (R)-2-amino-2-(1-(2-(4-chloro-[1,1-biphenyl]-2-yl)ethyl)piperidin-4-yl)-1-(4-(2-methoxy-6-(methylthio)benzyl)piperazin-1-yl)ethan-1-one]",B (25 μM<EC99≤100 μM),A (12.5 μM<EC99≤25 μM),B (25 μM<EC99≤100 μM),A (12.5 μM<EC99≤25 μM),B (25 μM<EC99≤100 μM)
"N[C@@H](C(=O)N1CCN(CC2CCCCC2)CC1)C1CCN(CCc2cc(Cl)ccc2-c2ccccc2)CC1 [Example 526, Hydrobromide of (R)-2-amino-2-(1-(2-(4-chloro-[1,1-biphenyl]-2-yl)ethyl)piperidin-4-yl)-1-(4-(cyclohexylmethyl)piperazin-1-yl)ethan-1-one]",B (25 μM<EC99≤100 μM),B (25 μM<EC99≤100 μM),A (12.5 μM<EC99≤25 μM),A (12.5 μM<EC99≤25 μM),A (12.5 μM<EC99≤25 μM)
"COc1cccc(NC(=O)C(C)(C)C)c1CN1CCN(C(=O)[C@H](N)C2CCN(CCc3cc(Cl)ccc3-c3ccccc3)CC2)CC1 [Example 527, Hydrobromide of (R)-N-(2-((4-(2-amino-2-(1-(2-(4-chloro-[1,1-biphenyl]-2-yl)ethyl)piperidin-4-yl)acetyl)piperazin-1-yl)methyl)-3-methoxyphenyl)pivalamide]",C (100 μM<EC99),C (100 μM<EC99),B (25 μM<EC99≤100 μM),S (EC99≤12.5 μM),S (EC99≤12.5 μM)
"N[C@@H](C(=O)N1CCN(Cc2c(F)cccc2-c2c[nH]cn2)CC1)C1CCN(CCc2cc(Cl)ccc2-c2ccccc2)CC1 [Example 528, Hydrobromide of (R)-2-amino-2-(1-(2-(4-chloro-[1,1-biphenyl]-2-yl)ethyl)piperidin-4-yl)-1-(4-(2-fluoro-6-(1H-imidazol-4-yl)benzyl)piperazin-1-yl)ethan-1-one]",B (25 μM<EC99≤100 μM),A (12.5 μM<EC99≤25 μM),A (12.5 μM<EC99≤25 μM),A (12.5 μM<EC99≤25 μM),S (EC99≤12.5 μM)
"N[C@@H](C(=O)N1CCN(Cc2ccccc2SC(F)(F)F)CC1)C1CCN(CCc2cc(Cl)ccc2-c2ccccc2)CC1 [Example 529, Hydrobromide of (R)-2-amino-2-(1-(2-(4-chloro-[1,1-biphenyl]-2-yl)ethyl)piperidin-4-yl)-1-(4-(2-((trifluoromethyl)thio)benzyl)piperazin-1-yl)ethan-1-one]",C (100 μM<EC99),A (12.5 μM<EC99≤25 μM),A (12.5 μM<EC99≤25 μM),A (12.5 μM<EC99≤25 μM),B (25 μM<EC99≤100 μM)
"CSc1ccc(F)cc1CN1CCN(C(=O)[C@H](N)C2CCN(CCc3cc(Cl)ccc3-c3ccccc3)CC2)CC1 [Example 530, Hydrobromide of (R)-2-amino-2-(1-(2-(4-chloro-[1,1-biphenyl]-2-yl)ethyl)piperidin-4-yl)-1-(4-(5-fluoro-2-(methylthio)benzyl)piperazin-1-yl)ethan-1-one]",B (25 μM<EC99≤100 μM),S (EC99≤12.5 μM),S (EC99≤12.5 μM),S (EC99≤12.5 μM),A (12.5 μM<EC99≤25 μM)
"CSc1sccc1CN1CCN(C(=O)[C@H](N)C2CCN(CCc3cc(Cl)ccc3-c3ccccc3)CC2)CC1 [Example 531, Hydrobromide of (R)-2-amino-2-(1-(2-(4-chloro-[1,1-biphenyl]-2-yl)ethyl)piperidin-4-yl)-1-(4-((2-(methylthio)thiophen-2-yl)methyl)piperazin-1-yl)ethan-1-one]",B (25 μM<EC99≤100 μM),S (EC99≤12.5 μM),A (12.5 μM<EC99≤25 μM),A (12.5 μM<EC99≤25 μM),A (12.5 μM<EC99≤25 μM)
"CSc1cccc(Cl)c1CN1CCN(C(=O)[C@H](N)C2CCN(CCc3cc(Cl)ccc3-c3ccccc3)CC2)CC1 [Example 532, Hydrobromide of (R)-2-amino-1-(4-(2-chloro-6-(methylthio)benzyl)piperazin-1-yl)-2-(1-(2-(4-chloro-[1,1-biphenyl]-2-yl)ethyl)piperidin-4-yl)ethan-1-one]",B (25 μM<EC99≤100 μM),B (25 μM<EC99≤100 μM),B (25 μM<EC99≤100 μM),B (25 μM<EC99≤100 μM),B (25 μM<EC99≤100 μM)
"N[C@@H](C(=O)N1CCN(Cc2cccc3cccnc23)CC1)C1CCN(CCc2cc(Cl)ccc2-c2ccccc2)CC1 [Example 533, Hydrobromide of (R)-2-amino-2-(1-(2-(4-chloro-[1,1-biphenyl]-2-yl)ethyl)piperidin-4-yl)-1-(4-(quinolin-8-ylmethyl)piperazin-1-yl)ethan-1-one]",B (25 μM<EC99≤100 μM),A (12.5 μM<EC99≤25 μM),A (12.5 μM<EC99≤25 μM),A (12.5 μM<EC99≤25 μM),A (12.5 μM<EC99≤25 μM)
"CCSc1ncccc1CN1CCN(C(=O)[C@H](N)C2CCN(CCc3cc(Cl)ccc3-c3ccccc3)CC2)CC1 [Example 535, Hydrobromide of (R)-2-amino-2-(1-(2-(4-chloro-[1,1-biphenyl]-2-yl)ethyl)piperidin-4-yl)-1-(4-((2-(ethylthio)pyridin-3-yl)methyl)piperazin-1-yl)ethan-1-one]",B (25 μM<EC99≤100 μM),A (12.5 μM<EC99≤25 μM),B (25 μM<EC99≤100 μM),B (25 μM<EC99≤100 μM),B (25 μM<EC99≤100 μM)
